One data set is described as follows: in vivo. The conditions noted are these: rat, po.
Data set [1] deals with rat stomach. The conditions noted are these: in vivo.
The subject of data set [2] is carrageenin-induced oedema in the rat's paw. As to the kind of experiment: Inhibition of carrageenin-induced oedema in rat's paw. The conditions noted are these: for Volume of paw (ml) ± standard error: measured 3 hours after carrageenin; for % Inhibition ± standard error (paw oedema): 3 hours after carrageenin. (Carrageenan injected into the paw causes an acute inflammation.)

For data set [3] the following is noted: background knowledge; cited from earlier work.
Data set [4] deals with granuloma induced in rats by implantation of cotton balls. The data set can be described thus: Granuloma induced in rats by implantation of cotton balls. It is filed as in vivo, rat. The conditions noted are these: for Weight of wet granuloma: net weight ± standard error; for Dry granuloma ± standard error: net weight, (mg) printed in adjoining wet weight head. An excerpt:
The figures refer to the net weight of granuloma tissue obtained by subtracting the original weight of the cotton ball.

The test system of data set [5] is contortions induced by acetic acid in mice. The data set can be described thus: Inhibition of contortions induced by acetic acid injected into the abdominal cavity of the mouse. It is filed as in vivo.
Data set [6] has as its system humans with reumatic diseases. The data set can be described thus: Treatment of humans with reumatic diseases / polyarthritics. The class given is in vivo, human. The source says:
In general, the new therapeutic compounds can be used to treat the same disorders as phenylbutazone. […] These therapeutic compounds have been found effective in treating humans as well as animals.

Data set [7] deals with rat stomach. As to the kind of experiment: Ulcerogenic activity on the stomach. The conditions noted are these: compared with phenylbutazone.
Setting [8] is: 25 mg/kg per os 1 h before carrageenin.
Setting [9] is: 50 mg/kg per os 1 h before carrageenin.
The mark [10] stands for this setting: 100 mg/kg per os 1 h before carrageenin.
[11] abbreviates: 200 mg/kg per os 1 h before carrageenin.
Where [12] appears, read: high doses (200 mg/kg), both products compared.
The mark [13] stands for this setting: lower dose levels (100 and 50 mg/kg).
Where [14] appears, read: 30 mg/kg per os 1 h before acetic acid injection.
[15] abbreviates: 100 mg/kg per os 1 h before acetic acid injection.
Setting [16] is: 300 mg/kg per os 1 h before acetic acid injection.

Entries after “also recorded” stand apart in the source; their conditions may differ. Where a name gives a salt, the structure may show the parent alone. Read-outs that look alike come from different tables or passages of the source.

The text below walks through data of patent US3994910A, “Derivatives of 1,2-diphenyl-3,5-dioxo-4-N-butyl-pyrazolidine and process for making same” (Antonia Gallardo, S.A., priority 1973, dated 1976).

Broadly, the LD50 is the dose at which mortality reaches 50%. The low end stands for greater toxicity, the high end for lower toxicity. Usually mortality stands for the share of the test organisms that died. Low readings indicate more survivors, high ones fewer survivors. As to `NC1=NCCS1` [2-amino-thiazoline, 2-amino-2-thiazoline], in the data set “in vivo”, the 50% lethal dose (LD50) came to 430 mg/kg. For the same compound, the mortality was 20% in “in vivo” (316 mg/kg); 40% in the data set “in vivo” (383 mg/kg); 60% in the data set “in vivo” (464 mg/kg); 70% in “in vivo” (562 mg/kg); 90% in “in vivo” (681 mg/kg); 90% in the data set “in vivo” (825 mg/kg). Also, the No. deaths was found to be 2 in the data set on rat (316 mg/kg per os); 4 in the data set on rat (383 mg/kg per os); 6 in the data set with rat (464 mg/kg per os); 7 with rat (562 mg/kg per os); 9 in the data set on rat (681 mg/kg per os); 9 in the data set with rat (825 mg/kg per os).
Regarding `CCCCC1C(=O)N(c2ccccc2)N(c2ccccc2)C1=O` [LAS 6671, 1,2-diphenyl-3,5-dioxo-4-n-butylpyrazolidine-2-amino-4-methyl-pyridine], the “UG: Intensity of ulceration produced in the rat stomach” value (“UG: Intensity of ulceration produced” for short) with rat stomach [1] was “+”.
On the same count and under the same terms, as for `CCCCC1C(=O)N(c2ccccc2)N(c2ccccc2)C1=O` [Piperazine salt of Phenylbutazone], the entry is “+”.
`CCCCC1C(=O)N(c2ccccc2)N(c2ccccc2)C1=O` [Phenylbutazone, 4-n-butyl-1,2-diphenyl-3,5-pyrazolidinedione]: the “Volume of paw (ml) ± standard error” value in data set [2] (setting [8]) was determined as 0.6545 ± 0.0545 mL; in data set [2] (setting [9]), 0.6886 ± 0.0699 mL; in data set [2] (setting [10]) it was 0.3139 ± 0.0224 mL; in [2] (setting [11]), 0.2458 ± 0.0454 mL. Further, the results for the “% Inhibition ± standard error (paw oedema)” value in data set [2] (setting [9]), in data set [2] (setting [10]) and in data set [2] (setting [11]) were 28.70 ± 7.24%, 67.50 ± 2.30% and 74.60 ± 4.70%, respectively. In data set [3], the “most frequent serious toxic effects” value was “ulcerogenesis and fluid retention”. In addition, in the data set with rat (per os, doses in mg/kg, no central value printed), the “LD50 per os in the rat (only range in parentheses printed)” value is on record as 530 - 725. Further, the “Percentage inhibition Dry granuloma” value in data set [4] (50 mg/Kg/day per os) is listed as 8.50 ± 10.6%; in data set [4] (100 mg/Kg/day per os), 7.90 ± 6.70%; in data set [4] (200 mg/Kg/day per os), 35.40 ± 5.50%. Further, the results for the “Percentage inhibition Wet granuloma” value in data set [4] (50 mg/Kg/day per os), in data set [4] (100 mg/Kg/day per os) and in data set [4] (200 mg/Kg/day per os) were 4.30 ± 4.10%, 6.50 ± 2.90% and 22.20 ± 2.80%, respectively. The “Weight of wet granuloma” value was determined as 434.75 ± 18.36 mg in data set [4] (50 mg/Kg/day per os), 424.50 ± 13.47 mg in data set [4] (100 mg/Kg/day per os) and 353.40 ± 13.14 mg in [4] (200 mg/Kg/day per os). Besides, the “Dry granuloma ± standard error” value in [4] (50 mg/Kg/day per os) turned out to be 83.94 ± 8.22 mg; in data set [4] (100 mg/Kg/day per os) it was 71.23 ± 5.18 mg; in data set [4] (200 mg/Kg/day per os), 49.96 ± 4.25 mg. Moreover, the “inhibition of granuloma tissue formation” value in data set [4] (setting [12]) was “about the same degree of inhibition of granuloma tissue formation”; in [4] (setting [13]), “did not”. Also, the “% inhibition ± standard error (contortions)” value in data set [5] (setting [14]) amounted to 27.70 ± 7.97%; in data set [5] (setting [15]), 42.10 ± 8.20%. The results for the “No. of contortions ± standard error” value in [5] (setting [14]), in [5] (setting [15]) and in data set [5] (setting [16]) were 59.00 ± 6.51, 47.30 ± 6.70 and 42.30 ± 6.75, respectively. Moreover, the “UG: Intensity of ulceration produced” value in the data set with rat stomach [1] was “++”. The “ulcerogenic indices ± standard error” value in the data set on rat stomach [1] (50 mg/kg) amounted to 0.73 ± 0.21; in the data set on rat stomach [1] (100 mg/kg) it was 4.33 ± 0.47; with rat stomach [1] (200 mg/kg) it was 5.00 ± 0.56.
With `CCCCC1C(=O)N(c2ccccc2)N(c2ccccc2)C1=O` [LAS 11871, 1,2-diphenyl-3,5-dioxo-4-n-butylpyrazolidine-2-amino-2-thiazoline], the treatment of polyarthritics entry in data set [6] (200 mg two, or three times per day) was “successfully treat polyarthritics”. In addition, the “treatment of humans with reumatic diseases” value in data set [6] (humans) is reported as “effective in the treatment of humans with reumatic diseases”. In addition, the “ulcerogenic activity / gastric lesions” value in the data set on rat stomach [7] was “much less active in this respect than phenylbutazone; also recorded: produces fewer gastric lesions”. The “% Inhibition ± standard error (paw oedema)” value in [2] (setting [8]) was found to be 18.60 ± 6.54%; in data set [2] (setting [9]), 36.01 ± 7.06%; in [2] (setting [10]) it was 72.40 ± 4.43%; in data set [2] (setting [11]), 84.00 ± 3.97%. Further, the “Volume of paw (ml) ± standard error” value in data set [2] (setting [8]) was found to be 0.7864 ± 0.0632 mL; in data set [2] (setting [9]), 0.6182 ± 0.0683 mL; in data set [2] (setting [10]), 0.2667 ± 0.0428 mL; in data set [2] (setting [11]), 0.1545 ± 0.0384 mL. Further, the “activity against inflammation compared with phenylbutazone” value in data set [2] (Table 2, at doses of 50 mg/kg and above) is listed as “the more active compound”; in data set [2] (Table 2, overall), “at least as active as phenylbutazone against inflammation”. In [2] (general statement), the “anti-inflammatory activity compared with phenylbutazone” value is “more active as an analgesic and anti-inflammatory agent than phenylbutazone”. Moreover, the “Percentage inhibition Dry granuloma” value in [4] (50 mg/Kg/day per os) is recorded as 20.00%; in data set [4] (100 mg/Kg/day per os) it was 19.90 ± 6.10%; in data set [4] (200 mg/Kg/day per os), 37.60 ± 2.50%. The figures for the “Percentage inhibition Wet granuloma” value in [4] (50 mg/Kg/day per os), in data set [4] (100 mg/Kg/day per os) and in [4] (200 mg/Kg/day per os) were 14.40 ± 1.90%, 18.60 ± 3.70% and 20.50 ± 2.80%, respectively. Besides, the “Dry granuloma ± standard error” value came to 61.82 ± 3.16 mg in data set [4] (50 mg/Kg/day per os), 61.95 ± 4.74 mg in data set [4] (100 mg/Kg/day per os) and 48.29 ± 1.98 mg in data set [4] (200 mg/Kg/day per os). Also, the “inhibition of granuloma tissue formation” value in data set [4] (setting [12]) is given as “about the same degree of inhibition of granuloma tissue formation”; in [4] (setting [13]), “continued to inhibit the granuloma tissue formation”. Also, the “No. of contortions ± standard error” value in data set [5] (setting [14]) is 44.20 ± 6.03; in [5] (setting [15]), 36.90 ± 6.34; in data set [5] (setting [16]) it was 24.10 ± 3.74. For the same compound, the “% inhibition ± standard error (contortions)” value in data set [5] (setting [15]) worked out at 54.90 ± 7.76%; in [5] (setting [16]), 70.50 ± 4.60%. In addition, the “analgesic activity compared with phenylbutazone” value in data set [5] (mouse, in vivo) was “more potent than phenylbutazone as an analgesic; also recorded: more active as an analgesic and anti-inflammatory agent than phenylbutazone”. Moreover, the “UG: Intensity of ulceration produced” value in the data set on rat stomach [1] is given as “+”. In addition, the “ulcerogenic indices ± standard error” value in the data set with rat stomach [1] (50 mg/kg) is on record as 0.59 ± 0.19; in the data set with rat stomach [1] (100 mg/kg), 2.43 ± 0.41; in the data set on rat stomach [1] (200 mg/kg), 3.65 ± 0.56.
